This note sets out measurements from patent publication US20010039952A1, “ULTRASOUND ENHANCED CHEMOTHERAPY” (Walter A. Hacker, Ph. D, priority 1998, published 2001).

Data set [1] relates to peritoneal carcinomatosis. Put plainly: Instillation of chemotherapy directly into the abdomen with low energy ultrasound in a patient with peritoneal carcinomatosis (Examples III, IV). It is filed as in vivo. To be noted: with ultrasound at less than 100 kHz and less than 50 W; intraperitoneal instillation. Here is the method:
The chosen drug is dissolved in 100 ml of normal saline, injected into the catheter and followed by another 100 ml of normal saline for flushing. The patient's position is shifted every few minutes for an hour to disperse the drug. […] The chosen drug is bleomycin (15 units), 5-fluorouracil(1000 mg), thiotepa (45 mg) Adriamycin (30 mg) cisplatin, or a-IFN.
The procedure set forth in Example III is repeated with the chosen drug administered with microbubbles and the interval of repeated doses is further increased.

Another data set has as its system hepatic metastases. The settings on record: human, in vivo.

For `N.N.[Cl][Pt][Cl]` [cisplatin], the “interval of repeated doses” value in data set [1] was “increases the interval of repeated doses”.
`O=c1[nH]cc(F)c(=O)[nH]1` [fluorouracil]: the “interval of repeated doses” value in data set [1] is listed as “increases the interval of repeated doses”. In the data set with hepatic metastases, the drug toxicity result is “less drug toxicity”.
Regarding `O=c1[nH]c(=O)n([C@H]2C[C@H](O)[C@@H](CO)O2)cc1F` [flexuridine], in the data set on hepatic metastases, the drug toxicity result is “less drug toxicity”.
As to bleomycin, the “interval of repeated doses” value in data set [1] is listed as “increases the interval of repeated doses”.
On to `S=P(N1CC1)(N1CC1)N1CC1` [thiotepa], for which the “interval of repeated doses” value in data set [1] was “increases the interval of repeated doses”.
In the case of `COc1cccc2c1C(=O)c1c(O)c3c(c(O)c1C2=O)C[C@@](O)(C(=O)CO)C[C@@H]3O[C@H]1C[C@H](N)[C@H](O)[C@H](C)O1` [Adriamycin, Doxorubicin], the “interval of repeated doses” value in data set [1] is “increases the interval of repeated doses”. The drug toxicity result in the data set on hepatic metastases is given as “less drug toxicity”.
